Measured values published in PubChem BioAssay AID1996.
In brackets after ≈: the same amount, converted by molar mass.

settings: buffer; pH 7.4; 200.0 µM

solubility kinetic [µg/mL]	Compound
13.2 (≈ 43.4 µM)	CCOC(=O)C1=C(C)OC(N)=C(C#N)C1c1ccc(C)s1 (stereo not given)
23.5 (≈ 69.7 µM)	O=C(NC(=S)Nc1ncccn1)c1ccccc1Br
46.4 (≈ 142 µM)	O=C(CCCN1C(=O)c2cccnc2C1=O)Nc1ccccc1F
23.8 (≈ 93.9 µM)	CC1CCN(C(=O)c2ccc3ccccc3c2)CC1
23.1 (≈ 85.4 µM)	O=C(NC1CCCCCC1)C(=S)N1CCOCC1
> 38.4	Cl.O=C(NCc1ccccc1)N1CCNCC1
> 50.1	Cc1cccc(OCC(O)CN2CCc3ccccc3C2)c1.Cl (stereo not given)
17.9 (≈ 54.4 µM)	C=CCNC(=O)COC(=O)c1cccnc1Nc1ccccc1F
4.1 (≈ 9.9 µM)	Cc1cc(C(=O)COC(=O)c2cnccn2)c(C)n1-c1ccc(Br)cc1
> 42.8	Cn1cccc1/C=N\NC(=O)C1COc2ccccc2O1 (stereo not given)
> 50.3	CC(=O)Nc1cccc(NC(=S)Nc2cccc3ccccc23)c1
> 52	Nc1nc(SCC(=O)N2CCOCC2)[nH]c(=O)c1-c1ccccc1
17.7 (≈ 50.8 µM)	Cc1ccc(N(Cc2cc(=O)[nH]c3ccccc23)C(=O)C(C)C)c(C)c1
> 48.4	CC1CCN(C(=O)CSc2n[nH]c(-c3cccs3)n2)CC1
> 42.8	COC(=O)c1ccc(CN2C(=O)c3ccccc3C2=O)o1
57.2 (≈ 147 µM)	CCOC(=O)N1CCN(C(=O)COC(=O)c2cc(Cl)cc(Cl)c2)CC1
6.8 (≈ 35.2 µM)	Cc1cccc2nc3ccccc3cc12
31 (≈ 73.9 µM)	CCOC(=O)c1c(-c2ccc(C)o2)csc1NC(=O)CN1CCC(C(N)=O)CC1
3.4 (≈ 9.93 µM)	O=C(CSc1ccc(Br)cc1)NC1CCCCCC1
36.7 (≈ 99.9 µM)	COc1ccccc1C(=O)C1CCCN(Cc2ccc3c(c2)OCCO3)C1 (stereo not given)
3.5 (≈ 10.3 µM)	Cc1ccc(NC(=O)C=NOCC(=O)Nc2cc(C)cc(C)c2)cc1
34.3 (≈ 106 µM)	CC(=O)N(c1ccccc1C)S(=O)(=O)c1ccc(Cl)cc1
> 39.1	CCc1sc(C(=O)Nc2ncccc2C)cc1C
> 36.5	CCCCOC(=O)Nc1nnc(C(C)C)s1

solubility kinetic [µg/mL]	Compound
40.5 (≈ 131 µM)	O=S(=O)(Cc1ccccc1)NCCc1cccc(Cl)c1
0.5 (≈ 1.57 µM)	Cc1ccc(C(=O)O/N=C(\N)Cc2cccc3ccccc23)cc1
> 50.4	O=C(CCc1nc(-c2ccc(Cl)cc2)no1)NCC1CCCO1 (stereo not given)
> 41	Cc1ccc(C(C)NC(=O)Cc2cccs2)cc1C (stereo not given)
> 41	CC1CCN(C(=O)c2ccc3c(c2)NC(=O)CN3)CC1
> 46.5	CN1CCN(C(=O)CNC(=O)Cc2ccc(Cl)cc2)CC1
> 44	COc1ccc(NC(=S)NCCCN2CCCC2)cc1
36.3 (≈ 136 µM)	Cc1ccc(C2=NOC(=O)/C2=C\c2ccc(C)o2)cc1
> 49	CCNS(=O)(=O)c1ccc(CCC(=O)N2CCOCC2)cc1
46 (≈ 141 µM)	CC(C)(C)NC(=O)c1ccc2c(c1)C(=O)N(Cc1ccco1)C2=O
> 56.3	CCCC1(CCC)NC(=O)N(CC(=O)Nc2ccc3c(c2)OCCO3)C1=O
5 (≈ 16.7 µM)	O=C(Cn1cnc([N+](=O)[O-])c1)Nc1ccc(F)c(Cl)c1
13 (≈ 33.6 µM)	CCOC(=O)c1sc(NC(=O)C2CC(=O)N(c3ccc(C)cc3)C2)nc1C (stereo not given)
6 (≈ 18.9 µM)	Cc1ccc(CNCC(O)(c2ccccc2)c2ccccc2)cc1
< 0.6	COc1ccc(-c2nc3ccc(C)cc3c(=O)o2)cc1OC
> 41.9	CCC(=O)Nc1ccc2c(c1)ncn2-c1ccc(C)cc1
2.8 (≈ 9.54 µM)	CC(C)(C)NC(=O)C1CC1(c1ccccc1)c1ccccc1 (stereo not given)
> 47	O=C(O)c1ccccc1/C=N/NC(=S)NCc1ccccc1
> 34.1	Cc1ccc(NC(=O)Nc2cccnc2)cc1
19.1 (≈ 36.3 µM)	CN(c1ccc(OCC(=O)OCC(=O)Nc2ccc(OC(F)F)cc2)cc1)S(=O)(=O)c1cccs1
> 47.3	COc1ccc(C2c3c(noc3C)CC(C)(O)C2C(C)=O)cc1 (stereo not given)
1.6 (≈ 4.63 µM)	O=C(Nc1ccc(Cn2ccnc2)cc1)c1cccc(C(F)(F)F)c1
40 (≈ 146 µM)	CCC(=O)Nc1ccc(CCC(=O)N2CCCC2)cc1
8 (≈ 24.8 µM)	Cn1c(N)c(Br)c(-c2ccc(F)cc2)c(C#N)c1=O

solubility kinetic [µg/mL]	Compound
< 0.4	CN1c2ccccc2C(=O)/C(=C\Nc2ccc(F)cc2)S1(=O)=O
3.1 (≈ 11.4 µM)	Fc1ccc(NC(=S)N2CCc3ccccc32)cc1
> 61.9	COc1ccc([N+](=O)[O-])cc1NC(=O)COC(=O)Cn1cnc2ccccc2c1=O
18.4 (≈ 44.1 µM)	CC(OC(=O)[C@@H]1CCCN1C(=O)c1cccs1)C(=O)Nc1cccc([N+](=O)[O-])c1 (stereo not given in full)
> 45.2	COc1ccc(C2NC(=S)NC3=C2N2CCC3CC2)cc1 (stereo not given)
< 0.4	Cc1ccccc1C(=O)N1CCc2c([nH]c3ccccc23)C1C(F)(F)F (stereo not given)
> 56.7	CC1(C)NC(=O)N(CCC(=O)Nc2cc(C(F)(F)F)ccc2Cl)C1=O
12.3 (≈ 34.5 µM)	Cc1ccc(SCC(=O)Nc2ccc(N3CCOCC3)cc2)cc1C
> 46.3	COc1ccc(Nc2cc(C)nc3c(C)cccc23)cc1OC
31.6 (≈ 144 µM)	CN1C(=O)C2(OCCCO2)c2ccccc21
35.2 (≈ 130 µM)	O=Cc1c(NC2CCCCC2)c2ccccc2[nH]c1=O
22.6 (≈ 67.2 µM)	Cc1ccc(NC(=O)CCN2CCC(Cc3ccccc3)CC2)cc1
> 40.2	Cn1ccnc1C(O)(c1ccccc1)c1nccn1C
> 31.8	CC1NC(=S)N(C2CCCCC2)C1=O (stereo not given)
40 (≈ 120 µM)	CC(C)(C)c1ccc(CCC2OCC(CN3CCOCC3)O2)cc1 (stereo not given)
> 32.6	O=C(/C=C/c1ccco1)NCc1ccco1
> 49.8	CNC(=O)NC(=O)CN1C(=O)NC2(CCOc3ccccc32)C1=O (stereo not given)
3.8 (≈ 11.3 µM)	O=C(CNC(=O)c1ccccc1F)c1ccc(Br)cc1
11.7 (≈ 34.3 µM)	COc1cc(-c2c(C#N)c(N)nc3[nH]c(=S)[nH]c(=O)c23)ccc1O
> 58.5	O=C(CCN1C(=O)C2C3CCC(C3)C2C1=O)OCC(=O)c1ccc(Cl)cc1 (stereo not given)
35.6 (≈ 129 µM)	CCC(=O)N1CCN=C1SCc1cc(C)ccc1C
> 50.1	O=C(NNC1CC(=O)N(c2ccc(Cl)cc2)C1=O)c1ccco1 (stereo not given)
< 0.3	NC(=NC(=O)c1ccc(OC(F)(F)F)cc1)c1ccc(C(F)(F)F)cn1
> 40.7	CCOc1ccccc1NC(=O)NCc1cccnc1

solubility kinetic [µg/mL]	Compound
> 65.8	Nn1c(SCC(=O)NCCc2ccc(S(N)(=O)=O)cc2)nnc1C1CCCCC1
> 60.4	COc1cc2c(cc1OC)CN(C(=O)CCNC(=O)c1ccccc1Cl)CC2
12.8 (≈ 37 µM)	COc1ccccc1N1C(=O)c2ccccc2NC1c1ccc(O)cc1 (stereo not given)
11.2 (≈ 38 µM)	Fc1ccccc1NC(=S)NCc1ccc(Cl)cc1
21.9 (≈ 75.2 µM)	COC(=O)C1=C(C)NC(C)=C(C(=O)OC)C1c1ccco1
> 33.9	Cn1cnc2c(cnn2-c2ccccc2)c1=O
24.7 (≈ 96.7 µM)	COc1ccccc1CNC(=O)Cc1ccccc1
> 46	CCCNC(=O)c1ccccc1NC(=O)C1=CSCCO1
< 0.2	Clc1ccc(Cl)c(-c2nc(-c3ccncc3)no2)c1
> 33.2	O=C(NCCc1cnc[nH]1)c1cccs1
> 53.8	C=CCNC(=O)N1CCCC(N2CCN(c3ccccc3OC)CC2)C1 (stereo not given)
27.6 (≈ 111 µM)	O=C(O)c1ccc(OCCN2CCCC2=O)cc1
37.8 (≈ 78.8 µM)	Cc1onc(-c2c(F)cccc2Cl)c1C(=O)Nc1cccc(S(=O)(=O)N2CCOCC2)c1
37.1 (≈ 146 µM)	O=[N+]([O-])c1cc(CSC2=NCCN2)ccc1O
36.1 (≈ 111 µM)	C/C(=C/c1ccccc1)C(=O)N1CCN(c2ccc(F)cc2)CC1
> 42	O=C(CCl)N(C1CCCC1)C1CCS(=O)(=O)C1 (stereo not given)
0.9 (≈ 2.94 µM)	O=C(Nc1ccccc1C(=O)Nc1ccccc1)c1ccco1
0.4 (≈ 1.17 µM)	Cc1ccccc1OCCN(C#N)c1nc(N(C)C)nc(N(C)C)n1
48.1	Cl.OC(CNCc1cccc(Br)c1)c1ccccc1 (stereo not given)
> 44.8	Cc1[nH]nc(SCC(=O)N2CCCCCC2)c1[N+](=O)[O-]
> 45.5	CC(C)NC(=O)N1CCC(c2nc3ccccc3s2)CC1
7.6 (≈ 23.3 µM)	O=C(COC(=O)c1ccc(Cl)c([N+](=O)[O-])c1)NC1CCCC1
< 0.6	Cc1cc(=O)n(Cc2ccccc2)c2c(C)cccc12
36.4 (≈ 126 µM)	O=C(Nc1cccc(Cl)c1)NC1CCS(=O)(=O)C1 (stereo not given)

solubility kinetic [µg/mL]	Compound
37.8 (≈ 136 µM)	COc1cccc(NC(=O)NCCN2CCCCC2)c1
23.4 (≈ 119 µM)	O/N=C1\CCSc2ccc(F)cc21
33.5 (≈ 137 µM)	CC(C)C(=O)N1CCC(Cc2ccccc2)CC1
> 48.1	C=CCN(Cc1ccc(OC)c(OC)c1)C(=O)N1CCOCC1
> 41.3	COc1ccccc1C(C)NC(=O)Cc1ccsc1 (stereo not given)
> 38.8	O=C(NC1CCCCC1)N1CCc2ccccc2C1
7 (≈ 23.5 µM)	S=C(NCCCCc1ccccc1)NCc1ccccc1
> 50.6	O=C(COc1ccc2ccc(=O)oc2c1)NC1CCS(=O)(=O)C1 (stereo not given)
0.8 (≈ 2.51 µM)	COCc1cc(C)nc(SCc2ccc(Cl)cc2)c1C#N
5 (≈ 16.5 µM)	N#CCOc1ccccc1/C=C/c1nc2ccccc2c(=O)[nH]1
33.8 (≈ 118 µM)	Cc1ccc(N2CN(Cc3ccco3)CNC2=S)cc1
> 37.4	O=C(O)CC(NC(=O)c1ccco1)c1ccco1 (stereo not given)
0.9 (≈ 2.46 µM)	COc1ccc(C)cc1NC(=O)c1ccc(OCc2c(C)noc2C)cc1
2.3 (≈ 7.25 µM)	O=S(=O)(Oc1ccccc1N1CCCCC1)c1ccccc1
> 41	O=S(=O)(NC1Cc2ccccc2C1)c1ccccc1
53.3 (≈ 128 µM)	COc1cccc(CN(C)CC2CCCN(CCc3ccc(Cl)cc3)C2)c1OC (stereo not given)
> 64.1	O=C1CC2(CCCC2)C(=O)N1CN1CCN(S(=O)(=O)c2ccc(F)cc2F)CC1
6.2 (≈ 19.6 µM)	Cc1ccc(Cl)c(OCC(=O)N2CCc3ccccc3C2)c1
1.1 (≈ 3.01 µM)	Cc1ccc(NC(=S)NCC(C)CSc2ccc(Cl)cc2)cc1 (stereo not given)
> 51.5	Cc1cc(NC(=O)COC(=O)C2CC(=O)N(c3ccccc3)C2)no1 (stereo not given)
> 31.1	O=C(O)c1cc(Cl)nc2ccccc12
> 52.1	O=C(O)c1cc(O)ccc1NC(=O)C(c1ccccc1)c1ccccc1
> 42.4	CN1CCN(CC(=O)NC(=O)NC2CCCCC2)CC1

Compound	solubility kinetic [µg/mL]
O=[N+]([O-])c1cccnc1N1CCCNCC1	30.4 (≈ 137 µM)
